The assay concerns the target T1, MAGL protein (Homo sapiens, UniProt Q99685).
T1 sequence (Q99685 1-303): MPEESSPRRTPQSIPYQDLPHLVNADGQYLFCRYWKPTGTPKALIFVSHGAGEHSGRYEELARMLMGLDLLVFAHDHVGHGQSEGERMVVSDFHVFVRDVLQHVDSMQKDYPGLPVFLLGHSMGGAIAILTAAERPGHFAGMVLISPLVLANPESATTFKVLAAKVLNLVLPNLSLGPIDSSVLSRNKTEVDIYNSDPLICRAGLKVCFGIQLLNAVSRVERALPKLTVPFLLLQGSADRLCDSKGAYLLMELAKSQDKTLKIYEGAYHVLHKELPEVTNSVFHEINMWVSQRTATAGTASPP
Put plainly: 2-AG assay: MAGL inhibitory activity by hydrolysis of 2-arachidonoylglycerol to arachidonic acid, followed by mass spectrometry. The assay is classed as biochemical. To be noted: 8 μM 2-arachidonoylglycerol, 15 min preincubation, 30 min reaction at RT, RapidFire MS readout. Put shortly: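 Activity was measured by RapidFire SPE–triple-quad MS as the ratio of arachidonic acid to d8-arachidonic acid after 2-AG hydrolysis (8 μM substrate, 30 min, RT, acetonitrile quench). Compounds, tested from 12.5 μM down to […], were first preincubated 15 min with MAGL in TRIS/EDTA/Tween-20 buffer containing 2.5% DMSO.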

Broadly, the IC50 is the concentration that inhibits the measured activity by half. A high value points to lower potency.

Molecules are shown by their SMILES.

For the compound `O=C(N1CC2(CC(c3nc(C4CC4)n[nH]3)C2)C1)N1CC2(CN(Cc3nccn3CC(F)(F)F)C2)C1` [compound 698], the IC50 is 55.9 nM.

For `O=C(N1CC(C23CC(Nc4cnc(C(F)(F)F)cn4)(C2)C3)C1)N1CC2(CC(c3nc(C4CC4)n[nH]3)C2)C1` [compound 699], the IC50 was 0.34 nM.

In turn, `O=C(N1CC2(CC(c3nc(C4CC4)n[nH]3)C2)C1)N1CC2(CN(Cc3sncc3C(F)(F)F)C2)C1` [compound 700] gave an IC50 of 2.56 nM.

Turning to `O=C(N1CC2(CC(c3nc(C4CC4)n[nH]3)C2)C1)N1CC2(CN(Cc3ncoc3C(F)(F)F)C2)C1` [compound 701], the concentration for half-maximal inhibition (IC50) was 64.4 nM.

`O=C(N1CC(C23CC(c4cc(C5CC5)n[nH]4)(C2)C3)C1)N1CC2(CC(c3nc(C4CC(F)(F)C4)n[nH]3)C2)C1` [compound 702] yielded an IC50 of 255 nM.

As for `O=C(N1CC2(CC(c3nc(C4CC4)n[nH]3)C2)C1)N1CC2(CCN(Cc3ccc(S(=O)(=O)C(F)(F)F)cc3)C2)C1` [compound 703], the IC50 was 2.63 nM.

`O=C(N1CC2(CC(Cc3nc(C(F)(F)F)cs3)C2)C1)N1CC2(CC(c3nc(C4CC4)n[nH]3)C2)C1` [compound 704] had an IC50 of 0.3 nM.

Regarding `COc1cc(F)cc(C23CC(C4CN(C(=O)N5CC6(CC(c7nc(C8CC8)n[nH]7)C6)C5)C4)(C2)C3)c1` [compound 705], the 50% inhibitory concentration (IC50) amounted to 0.57 nM.

On to `O=C(N1CCC(C23CC(c4nnc(C5(C(F)(F)F)CC5)o4)(C2)C3)CC1)N1CC2(CC(c3nc(C4(O)CC4)n[nH]3)C2)C1` [compound 706], for which the midpoint of inhibition, the IC50, lay at 280 nM.

In turn, `O=C(N1CC(C23CC(Oc4cnc(C(F)(F)F)cn4)(C2)C3)C1)N1CC2(CC(c3nc(C4CC4)n[nH]3)C2)C1` [compound 707] registered an IC50 of 2.44 nM.

`O=C(N1CC(c2cnc(N3CC[C@H](C(F)(F)F)C3)nc2)C1)N1CC2(CC(c3nc(C4CC4)n[nH]3)C2)C1` [compound 708] came in with an IC50 of 2.63 nM.

Regarding `O=C(N1CC2(CC(c3nc(C4CC4)n[nH]3)C2)C1)N1CC2(CN(Cc3nccn3C(F)(F)F)C2)C1` [compound 709], the IC50 came to 24.3 nM.

`O=C(N1CC2(CC(Cc3ccc(OC(F)(F)F)nc3)C2)C1)N1CC2(CC(c3nc(C4(O)CC4)n[nH]3)C2)C1` [compound 710] displayed an IC50 of 2.61 nM.

For the compound `O=C(N1CC2(CC(Cn3cc(C4(C(F)(F)F)CC4)cn3)C2)C1)N1CC2(CC(c3nc(C4CC4)n[nH]3)C2)C1` [compound 711], 0.2 nM corresponded to half-maximal inhibition (IC50).

As for `Cc1cc(C)n(C23CC(C4CN(C(=O)N5CC6(CC(c7nc(C8(O)CC8)n[nH]7)C6)C5)C4)(C2)C3)n1` [compound 712], 497 nM corresponded to half-maximal inhibition (IC50).

With `O=C(N1CC2(CC(c3nc(C4CC4)n[nH]3)C2)C1)N1CC2(CN(Cc3cc(C(F)(F)F)ns3)C2)C1` [compound 713], the IC50 was 3.42 nM.

`O=C(N1CC2(CC(c3nc(C4(O)CC4)n[nH]3)C2)C1)N1CC2(CCN(Cc3ccc(S(=O)(=O)C(F)(F)F)cc3)C2)C1` [compound 714] had an IC50 of 30 nM.

As to `N=S(=O)(c1ccc(CC2CC3(C2)CN(C(=O)N2CC4(CC(c5nc(C6(O)CC6)n[nH]5)C4)C2)C3)c(F)c1)C(F)(F)F` (stereo not shown) [compound 715], the IC50 amounted to 0.45 nM.

Turning to `O=C(N1CC2(CC(Cn3nccc3C(F)(F)F)C2)C1)N1CC2(CC(c3nc(C4COC4)n[nH]3)C2)C1` [compound 716], the IC50 was determined as 29.2 nM.

Regarding `O=C(N1CC2(CC(c3nc(C4CC4)n[nH]3)C2)C1)N1CC2(CN(Cc3ccnn3CC(F)(F)F)C2)C1` [compound 717], the IC50 worked out at 83.8 nM.

`O=C(N1CC2(CC(c3nc(C4CC4)n[nH]3)C2)C1)N1CC2(CN(Cc3ccc[nH]c3=O)C2)C1` [compound 718] showed an IC50 of 550 nM.

Turning to `N#Cc1cnn(CC2CC3(C2)CN(C(=O)N2CC4(CC(c5nc(C6(O)CC6)n[nH]5)C4)C2)C3)c1` [compound 719], the IC50 was 68.9 nM.

`O=C(N1CC2(CC(Cc3ccc(OC(F)(F)F)cn3)C2)C1)N1CC2(CC(c3ncn[nH]3)C2)C1` [compound 721] yielded an IC50 of 544 nM.

Regarding `O=C(N1CC(C23CC(S(=O)(=O)c4ccc(C(F)(F)F)cc4)(C2)C3)C1)N1CC2(CC(c3nc(C4CC4)n[nH]3)C2)C1` [compound 722], the IC50 was determined as 57.1 nM.

Compound `O=C(N1CC2(CCC(S(=O)(=O)c3ccc(C(F)(F)F)cc3)CC2)C1)N1CC2(CC(c3nc(C4CC4)n[nH]3)C2)C1` [compound 723] had a 50% inhibitory concentration (IC50) of 1.37 nM.

The compound `O=C(N1CC2(CC(Cn3cc(OC(F)F)ccc3=O)C2)C1)N1CC2(CC(c3nc(C4CC4)n[nH]3)C2)C1` [compound 724] came in with an IC50 of 3.8 nM.

The compound `Cc1cc(C)n(C23CC(C4CN(C(=O)N5CC6(CC(c7nc(C8CC8)n[nH]7)C6)C5)C4)(C2)C3)n1` [compound 725] came in with an IC50 of 46.6 nM.

Compound `O=C(N1CC2(CC(c3nc(C4(O)CC4)n[nH]3)C2)C1)N1CC2(CC[C@@H](Cc3cccc(S(=O)(=O)C(F)(F)F)c3)C2)C1` [compound 726] registered an IC50 of 0.1 nM.

`O=C(N1CC2(CC(Cc3cnn(C(F)(F)F)c3)C2)C1)N1CC2(CC(c3nc(C4(O)CC4)n[nH]3)C2)C1` [compound 727]: the IC50 is 2.68 nM.

For the compound `O=C(N1CC2(CC(Cc3cccc(S(=O)(=O)C(F)(F)F)c3)C2)C1)N1CC2(CC(c3nc(C4COC4)n[nH]3)C2)C1` [compound 728], the concentration for half-maximal inhibition (IC50) worked out at 4.19 nM.

Compound `Cn1ncc(CC2CC3(C2)CN(C(=O)N2CC4(CC(c5nc(C6CC6)n[nH]5)C4)C2)C3)c1C(F)(F)F` [compound 729] returned an IC50 of 0.09 nM.

For `N=S(=O)(c1ccc(OC2CC3(C2)CN(C(=O)N2CC4(CC(c5nc(C6CC6)n[nH]5)C4)C2)C3)cc1)C(F)(F)F` (stereo not shown) [compound 730], half-maximal inhibition (IC50) was put at 2.01 nM.

For `O=C(N1CC2(CC(Cc3cncc(S(=O)(=O)C(F)(F)F)c3)C2)C1)N1CC2(CC(c3nc(C4CC4)n[nH]3)C2)C1` [compound 731], inhibition was half-maximal at 0.18 nM (IC50).

`O=C(N1CC2(CCN(Cc3nc(C(F)(F)F)cs3)CC2)C1)N1CC2(CC(c3nc(C4CC4)n[nH]3)C2)C1` [compound 732]: the IC50 amounted to 6.18 nM.

The compound `O=C(N1CC2(CC(c3nc(C4CC4)n[nH]3)C2)C1)N1CC2(CN(Cc3nc(CC4CC4)no3)C2)C1` [compound 733] yielded an IC50 of 29.5 nM.

`N=S(=O)(c1cccc(CC2CC3(C2)CN(C(=O)N2CC4(CC(c5ncn[nH]5)C4)C2)C3)c1)C(F)(F)F` (stereo not shown) [compound 734] yielded an IC50 of 568 nM.

Regarding `O=C(N1CC(C23CC(Oc4ccc(C(F)(F)F)cn4)(C2)C3)C1)N1CC2(CC(c3nc(C4CC4)n[nH]3)C2)C1` [compound 736], half-maximal inhibition (IC50) was put at 1.65 nM.

As to `O=C(N1CC2(CC(Cc3ncc(Cl)cc3F)C2)C1)N1CC2(CC(c3nc(C4CC(F)(F)C4)n[nH]3)C2)C1` [compound 737], the IC50 stood at 12 nM.

`O=C(N1CC2(CC(Cc3nnc(C4(C(F)(F)F)CC4)o3)C2)C1)N1CC2(CC(c3nc(C4CC(F)(F)C4)n[nH]3)C2)C1` [compound 738] registered an IC50 of 328 nM.

For the compound `N=S(=O)(c1ccc(CC2CC3(C2)CN(C(=O)N2CC4(CC(c5nc(C6CC6)n[nH]5)C4)C2)C3)nc1)C(F)(F)F` (stereo not shown) [compound 739], the IC50 is 1.26 nM.

Take `CC(C)(C)c1csc(CN2CC3(C2)CN(C(=O)N2CC4(CC(c5nc(C6CC6)n[nH]5)C4)C2)C3)n1` [compound 740]: the midpoint of inhibition, the IC50, lay at 1.32 nM.

In turn, `O=C(N1CC2(CC(c3nc(C4(O)CC4)n[nH]3)C2)C1)N1CC2(CC[C@H](Cc3cccc(S(=O)(=O)C(F)(F)F)c3)C2)C1` [compound 741] gave an IC50 of 0.15 nM.

`O=C(N1CC2(CC(Cc3cc(F)cc(C(F)(F)F)c3)C2)C1)N1CC2(CC(c3nc(C4COC4)n[nH]3)C2)C1` [compound 742]: the IC50 came out at 2.18 nM.

In turn, `CC(F)(F)c1noc(CN2CC3(C2)CN(C(=O)N2CC4(CC(c5nc(C6CC6)n[nH]5)C4)C2)C3)n1` [compound 743] had an IC50 of 13.2 nM.

`Cn1nc(CC2CC3(C2)CN(C(=O)N2CC4(CC(c5nc(C6COC6)n[nH]5)C4)C2)C3)cc1C(F)(F)F` [compound 744] gave an IC50 of 13.6 nM.

In the case of `N=S(=O)(c1ccc(C2CN(C(=O)N3CC4(CC(c5nc(C6CC6)n[nH]5)C4)C3)C2)cc1)C1CC1` (stereo not shown) [compound 745], the IC50 was determined as 6.37 nM.

`O=C(N1CC2(CC(c3nc(C4CC4)n[nH]3)C2)C1)N1CC2(CC(n3cnc(C4CC4)n3)C2)C1` [compound 746] registered an IC50 of 8.64 nM.

For the compound `O=C(N1CC2(CC(Cc3n[nH]cc3C(F)(F)F)C2)C1)N1CC2(CC(c3nc(C4CC4)n[nH]3)C2)C1` [compound 747], inhibition was half-maximal at 0.09 nM (IC50).

Consider `O=C(N1CC2(CC(Cc3cncc(C(F)(F)F)c3)C2)C1)N1CC2(CC(c3nc(C4COC4)n[nH]3)C2)C1` [compound 748], for which the IC50 turned out to be 37.2 nM.

For `N#Cc1cc(CC2CC3(C2)CN(C(=O)N2CC4(CC(c5nc(C6(O)CC6)n[nH]5)C4)C2)C3)cc(C(F)(F)F)c1` [compound 749], the IC50 amounted to 0.25 nM.

The compound `O=C(N1CC2(CC(c3nc(C4CC(F)(F)C4)n[nH]3)C2)C1)N1CC2(CN(Cc3cnc(C(F)(F)F)cn3)C2)C1` [compound 750] returned an IC50 of 445 nM.

In turn, `CC(C)c1cc(C(C)C)n(-c2ccc(C3CN(C(=O)N4CC5(CC(c6nc(C7(O)CC7)n[nH]6)C5)C4)C3)cc2)n1` [compound 751] came in with an IC50 of 0.66 nM.

Compound `N#Cc1ccc(CC2CC3(C2)CN(C(=O)N2CC4(CC(c5nc(C6(O)CC6)n[nH]5)C4)C2)C3)c(F)c1` [compound 752] yielded an IC50 of 0.29 nM.

As to `CS(=O)(=O)c1cc(CC2CC3(C2)CN(C(=O)N2CC4(CC(c5ncn[nH]5)C4)C2)C3)ccc1C(F)(F)F` [compound 753], it took 1490 nM to reach half-maximal inhibition (IC50).

As for `O=C(N1CC2(CC(Cc3ccc(F)cc3C(F)(F)F)C2)C1)N1CC2(CC(c3nc(C4COC4)n[nH]3)C2)C1` [compound 754], the IC50 is 0.43 nM.

(Values after patent US20250099448A1, “HETEROCYCLIC COMPOUNDS” (Hoffmann-La Roche Inc., priority 2022, published 2025).)
